# Test system: PBMC
# Experiment: ELISPOT (IFNγ, IL-5, IL-10, IL-17, IL-21) of PBMC expanded 14 days with Bla g extract, then stimulated with peptides or peptide pools
# Assay type: cell-based, human
# Parameters: key to Average Magnitude of Response: spot forming cells (SFC) per 10^6 PBMC; Response Rate per Subject: unit not given here
# Details: non-redundant epitopes; sensitized donors
# Procedure: PBMC Isolation and Cell Cultures: PBMC (peripheral blood mononuclear cells) were isolated from 450 mL (one unit) of blood by density gradient centrifugation as described and cryopreserved. For in vitro expansion of PBMC for peptide screening, cells were cultured in RPMI1640 (Omega Scientific)+5% human AB serum (Gemini Bioscience), GlutaMAX (Gibco), and penicillin/streptomycin (Omega Scientific) at 2×10^6 per mL, stimulated with 10 ug/mL Bla g extract (Greer), and incubated at 37° C. in 5% CO2. Every three days, IL-2 and IL-7 (10 U/mL) were added to the cultures. Cells were harvested for peptide screening at day 14.
# ELISPOT Assays: Production of IFNγ, IL-5, IL-17, IL-10, and IL-21 (as representative of TH1, TH2, TH17, TR1, and […], respectively) in response to peptide stimulation was measured by ELISPOT as described previously. […] In brief, 1×10^5 cells per well were incubated with peptide, peptide pool, or Bla g extract (10, 5, and 10 ug/ml, respectively) on anti-lymphokine antibody coated ELISPOT plates (Millipore #MSIPS4510) for 22 hours. Subsequently, secondary anti-lymphokine antibodies were added and incubated for 2 hours, washed, and avidin-peroxidase complex added for 1 hour. Plates were washed and spots developed with 3-amino-9-ethylcarbazole (Sigma #A6926) and Vector Blue (Vector #SK-5300) for IFNγ/IL-5 and IL-10/IL-17 dual plates or TMB (Sigma #T0565) for single IL-21. Criteria for peptide pool positivity were at least 100 spot forming cells (SFC) per 10^6 PBMC, p<0.05, and stimulation index≥2. Criteria for peptide positivity were identical except with a threshold of 20 SFCs.
# We synthetized overlapping peptide sets of 15 amino acids in length overlapping by 10 residues and covering the entire sequence of known Bla g Allergens, i.e. Bla g 1-7, 9 and 11, referred from hereafter collectively as BLAGA. A total of 809 BLAGA peptides were arranged in pools, encompassing on average 20 peptides.
# To assess T cell reactivity, we utilized a strategy applied to the definition of epitopes from various allergen sources^15,16 utilizing in vitro stimulation with allergen extracts. Here, PBMC from each subject were stimulated in vitro with Bla g extract. After 14 days, pools of overlapping 15-mer peptides from the BLAGA were tested for responses, and positive pools deconvoluted to identify the specific epitopes. As readout, we utilized ELISPOT assays specific for IL-5, IFNγ, IL-10, IL-17 and IL-21, chosen as representative of TH2, TH1, TR1, TH17 and TFH reactivity, respectively.
Sequence,Average Magnitude of Response,Response Rate per Subject
VLEKLEAGFAKLAAS (listed as Blattella germanica),65.5,14.3
VLGLPAIKAWVAKRP,48.5,14.3
VNQHKKAIEEDLKHF,4.0,2.9
VPIMNIYSAFEFDPN,18.5,4.3
VQKLQKEVDRLEDEL,3.3,1.4
VVFDTGSSNLWVPSK,4.7,4.3
VVRLQSWQSEMLRMN,6.4,2.9
VYEVAIPDRLTLRVE,3.4,2.9
WCNEEDHLRIISMQM,13.1,7.1
WVCEHRWRQIFNMVG,33.9,4.3
WVPSKKCHLTNIACL,8.4,5.7
YFVAILDYLNHMAKE (listed as Blattella germanica),137.2,15.7
YHYDADENSKQKKWD,3.7,2.9
YLGKQFGLSGKDDWE,22.6,8.6
